Assay results as given in ChEMBL document CHEMBL1201861, “Genomics of Drug Sensitity in Cancer screening data, Wellcome Trust Sanger Institute”.

Experiments:
Assay in all cases: cells
[1] = tested on: COLO-320-HSR; format: functional, cell-based, Homo sapiens; settings: Homo sapiens, COLO-320-HSR;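 note: growth inhibition of COLO-320-HSR cells, determined with a cell viability assay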
Description: SANGER: Inhibition of human COLO-320-HSR cell growth in a cell viability assay.

[2] = tested on: GB-1; format: functional, cell-based, Homo sapiens; settings: Homo sapiens, GB-1;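 note: growth of GB-1 cells judged by a viability assay, IC50 marks the concentration inhibiting growth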
Description: SANGER: Inhibition of human GB-1 cell growth in a cell viability assay.

[3] = tested on: NCI-H526; format: functional, cell-based, Homo sapiens; settings: Homo sapiens, NCI-H526;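 note: growth inhibition of the human NCI-H526 cell line, measured by a cell viability assay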
Description: SANGER: Inhibition of human NCI-H526 cell growth in a cell viability assay.

[4] = tested on: GCIY; format: functional, cell-based, Homo sapiens; settings: Homo sapiens, GCIY;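 note: growth inhibition of the human GCIY cell line, read out by a cell viability assay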
Description: SANGER: Inhibition of human GCIY cell growth in a cell viability assay.

[5] = tested on: NCI-H1650; format: functional, cell-based, Homo sapiens; settings: Homo sapiens, NCI-H1650;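 note: growth inhibition of human NCI-H1650 cells measured by a cell viability assay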
Description: SANGER: Inhibition of human NCI-H1650 cell growth in a cell viability assay.

[6] = tested on: RS4-11; format: functional, cell-based, Homo sapiens; settings: Homo sapiens, RS4-11;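 note: growth inhibition of RS4-11 cells, read out by a cell viability assay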
Description: SANGER: Inhibition of human RS4-11 cell growth in a cell viability assay.

[7] = tested on: MHH-PREB-1; format: functional, cell-based, Homo sapiens; settings: Homo sapiens, MHH-PREB-1;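 note: cell viability assay measuring inhibition of proliferation of human MHH-PREB-1 cells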
Description: SANGER: Inhibition of human MHH-PREB-1 cell growth in a cell viability assay.

[8] = tested on: SF-268; format: functional, cell-based, Homo sapiens; settings: Homo sapiens, SF-268;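 note: growth inhibition of SF-268 cells determined with a cell viability assay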
Description: SANGER: Inhibition of human SF268 cell growth in a cell viability assay.

[9] = tested on: GR-ST; format: functional, cell-based, Homo sapiens; settings: Homo sapiens, GR-ST
Description: SANGER: Inhibition of human GR-ST cell growth in a cell viability assay.

[10] = tested on: NB6; format: functional, cell-based, Homo sapiens; settings: Homo sapiens, NB6;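 note: growth inhibition of NB6 cells, read out by a cell viability assay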
Description: SANGER: Inhibition of human NB6 cell growth in a cell viability assay.

[11] = tested on: TE-9; format: functional, cell-based, Homo sapiens; settings: Homo sapiens, TE-9;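 note: cell growth inhibition, measured with a cell viability readout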
Description: SANGER: Inhibition of human TE-9 cell growth in a cell viability assay.

[12] = tested on: BB65-RCC; format: functional, cell-based, Homo sapiens; settings: Homo sapiens, BB65-RCC;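 note: growth inhibition of the cell line, measured with a cell viability assay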
Description: SANGER: Inhibition of human BB65-RCC cell growth in a cell viability assay.

[13] = tested on: KM-H2; format: functional, cell-based, Homo sapiens; settings: Homo sapiens, KM-H2;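 note: growth inhibition of KM-H2 cells, read out by a cell viability assay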
Description: SANGER: Inhibition of human KM-H2 cell growth in a cell viability assay.

[14] = tested on: 8-MG-BA; format: functional, cell-based, Homo sapiens; settings: Homo sapiens, 8-MG-BA;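 note: growth inhibition of 8-MG-BA cells, read out with a cell viability assay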
Description: SANGER: Inhibition of human 8-MG-BA cell growth in a cell viability assay.

[15] = tested on: CW-2; format: functional, cell-based, Homo sapiens; settings: Homo sapiens, CW-2;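 note: growth inhibition of CW-2 cells, read out by a cell viability assay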
Description: SANGER: Inhibition of human CW-2 cell growth in a cell viability assay.

[16] = tested on: no-10; format: functional, cell-based, Homo sapiens; settings: Homo sapiens;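 note: growth inhibition of no-10 cells, read out with a cell viability assay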
[17] = tested on: MLMA; format: functional, cell-based, Homo sapiens; settings: Homo sapiens, MLMA;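 note: growth inhibition of MLMA cells (human), determined through a cell viability readout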
Description: SANGER: Inhibition of human MLMA cell growth in a cell viability assay.

[18] = tested on: HAL-01; format: functional, cell-based, Homo sapiens; settings: Homo sapiens, HAL-01;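 note: growth inhibition of human HAL-01 cells, read out with a cell viability assay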
Description: SANGER: Inhibition of human HAL-01 cell growth in a cell viability assay.

[19] = tested on: JAR; format: functional, cell-based, Homo sapiens; settings: Homo sapiens, JAR;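 note: growth inhibition of human JAR cells determined with a cell viability assay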
Description: SANGER: Inhibition of human JAR cell growth in a cell viability assay.

[20] = tested on: MC116; format: functional, cell-based, Homo sapiens; settings: Homo sapiens, MC116;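 note: growth inhibition of MC116 cells, read out with a cell viability assay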
Description: SANGER: Inhibition of human MC116 cell growth in a cell viability assay.

[21] = tested on: COLO-824; format: functional, cell-based, Homo sapiens; settings: Homo sapiens, COLO-824
Description: SANGER: Inhibition of human COLO-824 cell growth in a cell viability assay.

[22] = tested on: GT3TKB; format: functional, cell-based, Homo sapiens; settings: Homo sapiens, GT3TKB;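 note: growth inhibition of the cell line, read out with a cell viability assay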
Description: SANGER: Inhibition of human GT3TKB cell growth in a cell viability assay.

[23] = tested on: TGW; format: functional, cell-based, Homo sapiens; settings: Homo sapiens, TGW;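 note: growth inhibition of human TGW cells, read out with a cell viability assay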
Description: SANGER: Inhibition of human TGW cell growth in a cell viability assay.

[24] = tested on: LS-123; format: functional, cell-based, Homo sapiens; settings: Homo sapiens, LS-123
Description: SANGER: Inhibition of human LS-123 cell growth in a cell viability assay.

[25] = tested on: D-247MG; format: functional, cell-based; settings: Homo sapiens
Description: SANGER: Inhibition of human D-247MG cell growth in a cell viability assay.

[26] = tested on: COLO-684; format: functional, cell-based, Homo sapiens; settings: Homo sapiens, COLO-684
[27] = tested on: DB; format: functional, cell-based, Homo sapiens; settings: Homo sapiens, DB
Description: SANGER: Inhibition of human DB cell growth in a cell viability assay.

[28] = tested on: ES8; format: functional, cell-based, Homo sapiens; settings: Homo sapiens, ES8;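 note: growth inhibition of human ES8 cells, read out with a cell viability assay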
Description: SANGER: Inhibition of human ES8 cell growth in a cell viability assay.

[29] = tested on: EOL1; format: functional, cell-based, Homo sapiens; settings: Homo sapiens, EOL1;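 note: growth inhibition of EoL-1 cells, read out by a cell viability assay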
[30] = tested on: DEL; format: functional, cell-based, Homo sapiens; settings: Homo sapiens, DEL;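 note: growth inhibition of the human DEL cell line, read out with a cell viability assay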
Description: SANGER: Inhibition of human DEL cell growth in a cell viability assay.

[31] = tested on: NMC-G1; format: functional, cell-based, Homo sapiens; settings: Homo sapiens, NMC-G1;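 note: growth inhibition of the NMC-G1 cell line, measured with a cell viability read-out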
Description: SANGER: Inhibition of human NMC-G1 cell growth in a cell viability assay.

[32] = tested on: LB1047-RCC; format: functional, cell-based, Homo sapiens; settings: Homo sapiens, LB1047-RCC;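 note: inhibition of cell growth, determined with a cell viability assay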
Description: SANGER: Inhibition of human LB1047-RCC cell growth in a cell viability assay.

[33] = tested on: SW872; format: functional, cell-based, Homo sapiens; settings: Homo sapiens, SW872;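 note: growth inhibition of SW872 cells, read out by a viability assay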
Description: SANGER: Inhibition of human SW872 cell growth in a cell viability assay.

[34] = tested on: LS-411N; format: functional, cell-based, Homo sapiens; settings: Homo sapiens, LS-411N
[35] = tested on: BE-13; format: functional, cell-based, Homo sapiens; settings: Homo sapiens, BE-13;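 note: growth inhibition of human BE-13 cells, measured with a cell viability assay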
Description: SANGER: Inhibition of human BE-13 cell growth in a cell viability assay.

[36] = tested on: A253 cell line; format: functional, cell-based, Homo sapiens; settings: Homo sapiens, A253;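 note: growth inhibition of A253 cells, read out with a cell viability assay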
Description: SANGER: Inhibition of human A253 cell growth in a cell viability assay.

[37] = tested on: DMS-114; format: functional, cell-based, Homo sapiens; settings: Homo sapiens, DMS-114
[38] = tested on: K5; format: functional, cell-based, Homo sapiens; settings: Homo sapiens, K5
Description: SANGER: Inhibition of human K5 cell growth in a cell viability assay.

[39] = tested on: LB2241-RCC; format: functional, cell-based, Homo sapiens; settings: Homo sapiens, LB2241-RCC;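 note: cell viability assay measuring how strongly the cultured human renal carcinoma line is prevented from growing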
[40] = tested on: MHH-NB-11; format: functional, cell-based, Homo sapiens; settings: Homo sapiens, MHH-NB-11;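 note: growth inhibition of human MHH-NB-11 cells, read out by a cell viability assay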
Description: SANGER: Inhibition of human MHH-NB-11 cell growth in a cell viability assay.

[41] = tested on: DSH1; format: functional, cell-based; settings: Homo sapiens;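 note: growth inhibition of human DSH1 cells, measured with a cell viability readout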
Description: SANGER: Inhibition of human DSH1 cell growth in a cell viability assay.

[42] = tested on: HH; format: functional, cell-based, Homo sapiens; settings: Homo sapiens, HH
Description: SANGER: Inhibition of human HH cell growth in a cell viability assay.

[43] = tested on: ES3; format: functional, cell-based, Homo sapiens; settings: Homo sapiens, ES3;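 note: growth inhibition of ES3 cells, read out with a cell viability assay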
Description: SANGER: Inhibition of human ES3 cell growth in a cell viability assay.

[44] = tested on: BT-474; format: functional, cell-based, Homo sapiens; settings: Homo sapiens, BT-474
Description: SANGER: Inhibition of human BT-474 cell growth in a cell viability assay.

[45] = tested on: C2BBe1; format: functional, cell-based, Homo sapiens; settings: Homo sapiens, C2BBe1;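 note: growth inhibition of C2BBe1 cells, read out through a viability assay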
Description: SANGER: Inhibition of human C2BBe1 cell growth in a cell viability assay.

[46] = tested on: SJSA-1; format: functional, cell-based, Homo sapiens; settings: Homo sapiens, SJSA-1;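 note: growth inhibition of human SJSA-1 cells, read out through a cell viability measurement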
Description: SANGER: Inhibition of human SJSA-1 cell growth in a cell viability assay.

[47] = tested on: A498; format: functional, cell-based, Homo sapiens; settings: Homo sapiens, A498;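 note: growth inhibition of human A498 cells, read out with a cell viability assay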
Description: SANGER: Inhibition of human A498 cell growth in a cell viability assay.

[48] = tested on: SW982; format: functional, cell-based; settings: Homo sapiens;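 note: growth inhibition of SW982 cells, read out with a cell viability assay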
Description: SANGER: Inhibition of human SW982 cell growth in a cell viability assay.

[49] = tested on: TE-11; format: functional, cell-based; settings: Homo sapiens;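 note: growth inhibition of human TE-11 cells, read out by a cell viability assay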
Description: SANGER: Inhibition of human TE-11 cell growth in a cell viability assay.

[50] = tested on: TGBC24TKB; format: functional, cell-based; settings: Homo sapiens;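 note: growth inhibition of human TGBC24TKB cells, read out with a cell viability assay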
Description: SANGER: Inhibition of human TGBC24TKB cell growth in a cell viability assay.

[51] = tested on: SCC-15; format: functional, cell-based, Homo sapiens; settings: Homo sapiens, SCC-15;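 note: growth inhibition of SCC-15 cells, read out with a cell viability assay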

Nc1ccccc1NC(=O)c1ccc(CNC(=O)OCc2cccnc2)cc1 [ENTINOSTAT]
IC50 [1]: 2860 nM | IC50 [2]: 1940 nM | IC50 [3]: 635 nM | IC50 [4]: > 5000 nM | IC50 [5]: > 5000 nM | IC50 [6]: > 5000 nM | IC50 [7]: 607 nM | IC50 [8]: 3480 nM | IC50 [9]: 1570 nM | IC50 [10]: 3560 nM | IC50 [11]: 1840 nM | IC50 [12]: 3980 nM | IC50 [13]: 1570 nM | IC50 [14]: 1290 nM | IC50 [15]: 658 nM | IC50 [16]: 1230 nM | IC50 [17]: 1880 nM | IC50 [18]: 1170 nM | IC50 [19]: 878 nM | IC50 [20]: 1440 nM | IC50 [21]: > 5000 nM | IC50 [22]: 4330 nM | IC50 [23]: 1080 nM | IC50 [24]: 2350 nM | IC50 [25]: > 5000 nM | IC50 [26]: > 5000 nM | IC50 [27]: 1700 nM | IC50 [28]: 360 nM | IC50 [29]: > 5000 nM | IC50 [30]: 375 nM | IC50 [31]: 404 nM | IC50 [32]: 1630 nM | IC50 [33]: 1810 nM | IC50 [34]: 1310 nM | IC50 [35]: 497 nM | IC50 [36]: > 5000 nM | IC50 [37]: > 5000 nM | IC50 [38]: 470 nM | IC50 [39]: 1290 nM | IC50 [40]: 435 nM | IC50 [41]: 287 nM | IC50 [42]: 990 nM | IC50 [43]: > 5000 nM | IC50 [44]: 1520 nM | IC50 [45]: > 5000 nM | IC50 [46]: 1520 nM

Cc1ccc(NC(=O)c2ccc(CN3CCN(C)CC3)cc2)cc1Nc1nccc(-c2cccnc2)n1 [IMATINIB]
IC50 [1]: > 2000 nM | IC50 [2]: > 2000 nM | IC50 [3]: > 2000 nM | IC50 [4]: > 2000 nM | IC50 [6]: > 2000 nM | IC50 [7]: > 2000 nM | IC50 [8]: > 2000 nM | IC50 [9]: > 2000 nM | IC50 [10]: > 2000 nM | IC50 [11]: > 2000 nM | IC50 [12]: > 2000 nM | IC50 [47]: > 2000 nM | IC50 [13]: > 2000 nM | IC50 [14]: > 2000 nM | IC50 [15]: > 2000 nM | IC50 [16]: > 2000 nM | IC50 [17]: > 2000 nM | IC50 [18]: > 2000 nM | IC50 [19]: > 2000 nM | IC50 [20]: > 2000 nM | IC50 [48]: > 2000 nM | IC50 [21]: > 2000 nM | IC50 [22]: > 2000 nM | IC50 [23]: > 2000 nM | IC50 [24]: > 2000 nM | IC50 [25]: > 2000 nM | IC50 [26]: > 2000 nM | IC50 [49]: > 2000 nM | IC50 [27]: > 2000 nM | IC50 [28]: > 2000 nM | IC50 [29]: > 2000 nM | IC50 [30]: > 2000 nM | IC50 [31]: > 2000 nM | IC50 [32]: > 2000 nM | IC50 [50]: > 2000 nM | IC50 [33]: > 2000 nM | IC50 [34]: > 2000 nM | IC50 [35]: > 2000 nM | IC50 [51]: > 2000 nM | IC50 [36]: > 2000 nM | IC50 [37]: > 2000 nM | IC50 [38]: > 2000 nM | IC50 [39]: > 2000 nM | IC50 [40]: > 2000 nM | IC50 [41]: > 2000 nM | IC50 [42]: > 2000 nM | IC50 [43]: > 2000 nM | IC50 [44]: > 2000 nM | IC50 [45]: > 2000 nM | IC50 [46]: > 2000 nM

CN(C)CCOc1ccc(-c2nc(-c3ccncc3)c(-c3ccc4c(c3)CC/C4=N\O)[nH]2)cc1 [SB590885]
IC50 [1]: > 5000 nM | IC50 [2]: > 5000 nM | IC50 [3]: > 5000 nM | IC50 [4]: > 5000 nM | IC50 [5]: > 5000 nM | IC50 [6]: > 5000 nM | IC50 [7]: > 5000 nM | IC50 [8]: > 5000 nM | IC50 [9]: > 5000 nM | IC50 [10]: > 5000 nM | IC50 [11]: > 5000 nM | IC50 [12]: > 5000 nM | IC50 [47]: > 5000 nM | IC50 [13]: > 5000 nM | IC50 [14]: > 5000 nM | IC50 [15]: > 5000 nM | IC50 [16]: > 5000 nM | IC50 [17]: > 5000 nM | IC50 [18]: 2930 nM | IC50 [19]: > 5000 nM | IC50 [20]: > 5000 nM | IC50 [48]: > 5000 nM | IC50 [21]: > 5000 nM | IC50 [22]: > 5000 nM | IC50 [23]: > 5000 nM | IC50 [24]: > 5000 nM | IC50 [25]: > 5000 nM | IC50 [26]: > 5000 nM | IC50 [49]: > 5000 nM | IC50 [27]: > 5000 nM | IC50 [28]: > 5000 nM | IC50 [29]: 180 nM | IC50 [30]: > 5000 nM | IC50 [31]: > 5000 nM | IC50 [32]: > 5000 nM | IC50 [50]: > 5000 nM | IC50 [33]: > 5000 nM | IC50 [34]: > 5000 nM | IC50 [35]: > 5000 nM | IC50 [51]: > 5000 nM | IC50 [36]: > 5000 nM | IC50 [37]: > 5000 nM | IC50 [39]: > 5000 nM | IC50 [40]: > 5000 nM | IC50 [41]: > 5000 nM | IC50 [42]: > 5000 nM | IC50 [43]: > 5000 nM | IC50 [44]: > 5000 nM | IC50 [45]: 1960 nM | IC50 [46]: > 5000 nM
